Experimental data reported in patent US8853394B2, “Pharmacokinetically improved compounds” (Surface Logix, Inc., priority 2006, dated 2014).
Values after ≈ are worked out from the molar mass of the structure shown. Read-outs that look alike come from different tables or passages of the source.

Key:
[1] = PAMPA permeability; type: in vitro ADME; details: Hex, read-out: PAMPA Hex
[2] = T1/2 in human liver microsomes; type: in vitro ADME
[3] = T1/2 in rat liver microsomes; type: in vitro ADME
[4] = molecular target: T1, PDE-6 bovine (Bos taurus, UniProt P11541+P23439); assay: PDE-6 bovine inhibition; type: biochemical
T1 sequence (P11541 2-856 limits assumed): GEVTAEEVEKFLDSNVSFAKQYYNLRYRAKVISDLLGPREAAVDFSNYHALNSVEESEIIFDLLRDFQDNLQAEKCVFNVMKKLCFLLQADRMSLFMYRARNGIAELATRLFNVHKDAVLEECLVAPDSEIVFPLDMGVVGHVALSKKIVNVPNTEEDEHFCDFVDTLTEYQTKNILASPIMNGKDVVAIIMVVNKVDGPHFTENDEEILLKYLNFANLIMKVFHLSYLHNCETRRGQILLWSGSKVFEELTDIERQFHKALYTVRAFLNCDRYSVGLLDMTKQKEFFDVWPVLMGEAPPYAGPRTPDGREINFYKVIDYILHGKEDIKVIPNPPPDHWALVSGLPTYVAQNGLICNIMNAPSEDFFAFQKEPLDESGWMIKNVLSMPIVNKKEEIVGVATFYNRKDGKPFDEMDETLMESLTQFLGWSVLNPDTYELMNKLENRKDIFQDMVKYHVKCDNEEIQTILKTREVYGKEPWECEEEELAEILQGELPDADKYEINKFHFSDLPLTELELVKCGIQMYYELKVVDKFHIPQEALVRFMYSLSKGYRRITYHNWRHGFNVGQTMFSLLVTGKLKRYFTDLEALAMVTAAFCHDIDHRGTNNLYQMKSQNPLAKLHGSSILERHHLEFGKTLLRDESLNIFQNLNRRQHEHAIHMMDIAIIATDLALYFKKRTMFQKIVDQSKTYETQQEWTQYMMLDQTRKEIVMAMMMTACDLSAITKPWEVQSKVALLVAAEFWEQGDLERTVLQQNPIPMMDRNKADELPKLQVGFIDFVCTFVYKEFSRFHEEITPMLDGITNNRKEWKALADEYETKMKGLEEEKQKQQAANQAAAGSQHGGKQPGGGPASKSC
T1 sequence (P23439 2-850 limits assumed): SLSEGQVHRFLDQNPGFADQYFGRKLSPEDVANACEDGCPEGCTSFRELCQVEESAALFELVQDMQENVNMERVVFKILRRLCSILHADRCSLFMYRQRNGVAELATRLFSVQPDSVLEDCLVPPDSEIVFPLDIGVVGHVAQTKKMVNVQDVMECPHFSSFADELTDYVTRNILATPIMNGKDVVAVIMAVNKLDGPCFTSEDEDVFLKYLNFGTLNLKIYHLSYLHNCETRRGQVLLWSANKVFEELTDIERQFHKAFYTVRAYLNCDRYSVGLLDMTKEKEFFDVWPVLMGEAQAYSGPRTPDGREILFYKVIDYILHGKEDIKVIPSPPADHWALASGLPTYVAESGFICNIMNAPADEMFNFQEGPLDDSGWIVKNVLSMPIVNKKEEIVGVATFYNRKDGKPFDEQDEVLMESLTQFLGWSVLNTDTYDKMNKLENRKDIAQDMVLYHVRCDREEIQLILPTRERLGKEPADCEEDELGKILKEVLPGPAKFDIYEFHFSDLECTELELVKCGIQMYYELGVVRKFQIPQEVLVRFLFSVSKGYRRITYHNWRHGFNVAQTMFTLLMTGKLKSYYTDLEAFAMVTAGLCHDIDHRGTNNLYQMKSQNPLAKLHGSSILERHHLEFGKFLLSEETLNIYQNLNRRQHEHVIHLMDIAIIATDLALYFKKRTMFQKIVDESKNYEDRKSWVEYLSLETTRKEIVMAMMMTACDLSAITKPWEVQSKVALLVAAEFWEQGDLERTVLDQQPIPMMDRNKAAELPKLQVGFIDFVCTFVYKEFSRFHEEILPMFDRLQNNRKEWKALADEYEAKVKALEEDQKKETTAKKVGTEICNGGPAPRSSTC

[5] = molecular target: PDE5 (Homo sapiens, UniProt O76074); assay: PDE-5 human inhibition; type: biochemical
[6] = Solubility; type: physicochemical
[7] = test system: PDE-1; assay: PDE-1 inhibition; type: biochemical
[8] = test system: PDE-3; assay: PDE-3 inhibition; type: biochemical
[9] = test system: PDE-4 human; assay: PDE-4 human inhibition; type: biochemical
[10] = Protein Binding; type: in vitro ADME; details: human, human serum components
Procedure: In general, protein binding is assessed by measuring the capacity of molecules of the invention to bind to one or more human serum components or mimics thereof. In one embodiment, suitable functional residues may be identified by screening of surfaces comprising such residues for their ability to resist adsorption of serum components, including, but not limited to serum proteins, and preferably human serum proteins. Candidate residues can be screened directly by attaching them to a solid support and testing the support for protein resistance. Alternatively, candidate residues are incorporated into, or linked to molecules of pharmaceutical interest. Such compounds may be synthesized on a solid support, or bound to a solid support after synthesis. In a non-limiting example of a direct binding assay, immobilized candidate functional residues or molecules incorporating such residues are tested for their ability to bind serum components. The serum components can be labeled with a signaling moiety for detection, or a labeled secondary reagent that binds to such serum components can be used.
A direct binding analysis can also be preformed in liquid phase. For example, test compounds can be mixed with one or more serum components in liquid phase, and the unbound molecules determined.

[11] = Non-Spec Binding; type: in vitro ADME
[12] = Caco-2 permeability; type: in vitro ADME; details: human; for Papp A→B: AtoB; for Papp B→A: BtoA
From the text: Several model systems are available, employing monolayers of various cell types, for evaluation of active transport of pharmaceutically active substances. For example, monolayers of Caco-2 intestinal epithelial cells can be used to evaluate active transport of substances between the intestine and the bloodstream. When plated on a surface which allows the flow of material from apical to basolateral and vice versa, such cells form a biological membrane which can be used to simulate physiological absorption and bioavailability. In another example, mouse brain capillary endothelial cell (MBEC) lines have been established to evaluate active transport in and out of the central nervous system. Another example of such cells is HT29 human colon carcinoma cells. Further, monolayers expressing particular transporter proteins can be established using transfected cells. For example, Sasaki et al (2002) J. Biol. Chem. 8:6497 used a double-transfected Madin-Darby canine kidney cell monolayer to study transport of organic anions.

[13] = Chronic Cytoxicity (mouse 3T3); type: cell-based; details: 3T3 cells
[14] = pH 2.7, aqueous buffer, read-out: Solubility (ug/mL) pH 2.7
[15] = pH 7.4, aqueous buffer, read-out: Solubility (ug/mL) pH 7.4

Row | Papp [1] [×10⁻⁶ cm/s] | half-life [2] [min] | half-life [3] [min] | IC50 [4] [nM] | IC50 [5] [nM] | solubility [6, 14] [µg/mL] | solubility [6, 15] [µg/mL] | IC50 [7] [nM] | IC50 [8] [nM] | IC50 [9] [nM] | fraction unbound [10] | Non-Spec Binding (%) [11] [%] | Papp A→B [12] [×10⁻⁶ cm/s] | Papp B→A [12] [×10⁻⁶ cm/s] | SMILES | GI50 [13] [nM] | LC50 (50% lethal concentration) [13] [nM]
1 | ~1.06 | 34 | 45.4 | 4.4 | 0.14 | 124 (≈ 228 µM) | 111 (≈ 204 µM) | 95 |  |  |  |  |  |  | CCCc1nc(C)c2c(=O)[nH]c(-c3cc(S(=O)(=O)N4CCN(C(=O)CN(C)C)CC4)ccc3OCC)nn12 [Compound 1] |  | 
2 |  | 47 | 34 | 12 | 1.5 | 112 (≈ 194 µM) | 26 (≈ 45.3 µM) | 76 | 9600 | 3700 | 0.071 | 68.4 |  |  | CCCc1nn(C)c2c(=O)[nH]c(-c3cc(S(=O)(=O)N4CCN(CCN5CCOCC5)CC4)ccc3OCC)nc12 [Compound 21] |  | 
3 |  | > 60 | 59.9 | 0.365 | 0.04 |  |  | 17 | 941 | 963 | 0.11 | 9.72 | 2.65 | 45.4 | CCCc1nc(C)c2c(=O)[nH]c(-c3cc(S(=O)(=O)N4CCN(CC(=O)N(C)C)CC4)ccc3OCC)nn12 [Compound 16] |  | 
4 | 133 | 9.83 | 9.8 | 0.946 | 0.113 |  |  | 12.9 | 697 | 1120 | 0.01 | 35.85 | 55.1 | 60.9 | CCCc1nc(C)c2c(=O)[nH]c(-c3cc(S(=O)(=O)N(CC)CCOC)ccc3OCC)nn12 [Compound 9] | 87300 | > 100000
5 |  | 30.8 | 34 | 1.09 | 0.16 | 115 (≈ 200 µM) | 110 (≈ 192 µM) | 46.3 | 2230 | 3690 | 0.155 | 8.78 | 8.45 | 40.6 | CCCc1nc(C)c2c(=O)[nH]c(-c3cc(S(=O)(=O)N4CCN(CCN5CCOCC5)CC4)ccc3OCC)nn12 [Compound 15] |  | 
6 |  | 12.7 | 16.6 | 0.645 | 0.051 |  |  | 3.5 | 777 | 373 | 0.0885 | 5.95 | 10.6 | 36.7 | CCCc1nc(C)c2c(=O)[nH]c(-c3cc(S(=O)(=O)NCCCN4CCCC4=O)ccc3OCC)nn12 [Compound 13] |  | 
7 |  | 44.1 | 33 | 0.64 | 0.037 |  |  | 16 | 507 | 1300 | 0.0945 | 22.15 | 4.11 | 46.3 | CCCc1nc(C)c2c(=O)[nH]c(-c3cc(S(=O)(=O)N4CCN(CC(=O)NC(C)C)CC4)ccc3OCC)nn12 [Compound 18] |  | 
